A short description of one series: Cytotoxicity (MCC). Format: cell-based. Conditions: sheep, sheep fibroblast cells; MCC denotes cytotoxicity; Table 1. The procedure:
(§1) The Visna virus test was carried out by the method of O. Narayan et al., Journal of Infectious Diseases 135, 5, 1977, 800-806. For this, the compounds according to the invention were diluted to non-cytotoxic concentrations in culture medium in 96-well microtiter plates. Subsequently, sheep fibroblast cells (5×10^4 cells per well) in production medium were added to each well. Each well then contained 50 μl of a Visna virus solution having a titre of about 2.5×10^4TCID50 (TCID=tissue culture infectious dose). This virus dose corresponds to an MOI (multiplicity of infection) of about 0.05.
(§2) Herein, MCC denotes cytotoxicity and MIC denotes the minimum concentration at which an inhibition of virus multiplication was still observed.

The next series deals with Visna virus. Nature of the series: Visna virus test: inhibition of virus-induced cytopathic effect / virus multiplication in infected cell cultures. Format: cell-based. To be noted: Visna-maedi virus, 168 h, sheep fibroblast cells, 7 days at 37° C., Table 1, read-out: 2 MIC (minimum concentration at which an inhibition of virus multiplication was still observed). The procedure: In cell cultures which are infected with Visna virus, pronounced virus-induced, cytopathic effects appear 5 to 10 days after infection. By treatment of the infected cell cultures with the compounds according to the invention, the appearance of these cytopathic effects could be prevented.
as §1
The infected and treated cells and the controlled cells were incubated for 7 days at 37° C. and 5% CO2.
On appearance of the virus-induced cytopathogenic effect in the untreated virus control, the cultures were fixed using formalin and subsequently stained with a Giemsa solution.
as §2
A general note: Damage to the host cells serves as the signal in cytopathic effect assays.

Molecules are shown by their SMILES. ≈ marks a conversion by molar mass, not a printed value. A value given as a limit tells only on which side of the number the result lay.

With `O=C(CCN1C[C@H](O)[C@@H](O)[C@H](O)[C@H]1CO)Nc1ccc(OCc2ccccc2)cc1` [Example 4, N-(4-Benzyloxyphenyl)-3-(1,5-didesoxy-1,5-imino-D-glucit-N-yl)propionamide], the MCC in “Cytotoxicity (MCC)” was more than 1000 µg/mL. For the same compound, the MIC with Visna virus came to 125 µg/mL (≈ 300 µM).

Regarding `CC(C)(C)c1ccc(NC(=O)CCN2C[C@H](O)[C@@H](O)[C@H](O)[C@H]2CO)cc1` [Example 7, N-(4-Tert.-butylphenyl)-3-(1,5-didesoxy-1,5-imino-D-glucit-N-yl)propionamid], the MCC in the series “Cytotoxicity (MCC)” is more than 1000 µg/mL. The MIC in the series on Visna virus was found to be 500 µg/mL (≈ 1360 µM).

With `C=CCOc1ccc(NC(=O)CCN2C[C@H](O)[C@@H](O)[C@H](O)[C@H]2CO)cc1` [Example 10, N-(4-Allyloxyphenyl)-3-(1,5-didesoxy-1,5-imino-D-glucit-N-yl)propionamide], the MCC in the series “Cytotoxicity (MCC)” is more than 1000 µg/mL. Further, the MIC in the series with Visna virus turned out to be 30 µg/mL (≈ 81.9 µM).

For the compound `O=C(CCN1C[C@H](O)[C@@H](O)[C@H](O)[C@H]1CO)Nc1ccc(C(F)(F)F)cc1` [Example 11, N-(4-Trifluoromethylphenyl)-3-(1,5-didesoxy-1,5-imino-D-glucit-N-yl)propionamide], the MCC in “Cytotoxicity (MCC)” was more than 1000 µg/mL. The MIC with Visna virus stood at 500 µg/mL (≈ 1320 µM).

The compound `O=C(CCN1C[C@H](O)[C@@H](O)[C@H](O)[C@H]1CO)Nc1ccc(OC(F)(F)C(F)Cl)cc1` (stereo partly drawn) [Example 12, N-[4-(2-Chloro-1,1,2-trifluoroethoxy)phenyl]-3-(1,5-didesoxy-1,5-imino-D-glucit-N-yl)propionamide] returned an MCC in the series “Cytotoxicity (MCC)” of 1000 µg/mL. In addition, the MIC with Visna virus amounted to 250 µg/mL (≈ 565 µM).

Consider `CC(C)c1ccccc1NC(=O)CCN1C[C@H](O)[C@@H](O)[C@H](O)[C@H]1CO` [Example 14, N-(2-Isopropylphenyl)-3-(1,5-didesoxy-1,5-imino-D-glucit-N-yl)propionamide], for which, in “Cytotoxicity (MCC)”, the MCC was more than 1000 µg/mL. Further, the MIC in the series on Visna virus was found to be 125 µg/mL (≈ 355 µM).

Take `O=C(CCN1C[C@H](O)[C@@H](O)[C@H](O)[C@H]1CO)Nc1ccccc1F` [Example 16, N-(2-Fluorophenyl)-3-(1,5-didesoxy-1,5-imino-D-glucit-N-yl)propionamide]: the MCC in the series “Cytotoxicity (MCC)” was more than 1000 µg/mL. In the series with Visna virus, the MIC was 250 µg/mL (≈ 761 µM).

The compound `O=C(CCN1C[C@H](O)[C@@H](O)[C@H](O)[C@H]1CO)N1CCc2ccccc21` [Example 17, 1-[3-(1,5-Didesoxy-1,5-imino-D-glucit-N-yl)propionyl]-2,3-dihydroindole] had an MCC in “Cytotoxicity (MCC)” of 1000 µg/mL. Moreover, the MIC with Visna virus was 125 µg/mL (≈ 372 µM).

On to `O=C(CCN1C[C@H](O)[C@@H](O)[C@H](O)[C@H]1CO)Nc1ccc(F)cc1F` [Example 18, N-(2,4-Difluorophenyl)-3-(1,5-didesoxy-1,5-imino-D-glucit-N-yl)propionamide], for which the MCC in “Cytotoxicity (MCC)” is more than 1000 µg/mL. The MIC with Visna virus worked out at 500 µg/mL (≈ 1440 µM).

`O=C(CCN1C[C@H](O)[C@@H](O)[C@H](O)[C@H]1CO)Nc1ccc(F)c(F)c1` [Example 19, N-(3,4-Difluorophenyl)-3-(1,5-didesoxy-1,5-imino-D-glucit-N-yl)propionamide] showed an MCC in the series “Cytotoxicity (MCC)” of more than 1000 µg/mL. Also, the MIC with Visna virus worked out at 125 µg/mL (≈ 361 µM).

In turn, `COc1cc(NC(=O)CCN2C[C@H](O)[C@@H](O)[C@H](O)[C@H]2CO)cc(OC)c1OC` [Example 23, N-(3,4,5-Trimethoxyphenyl)-3-(1,5-didesoxy-1,5-imino-D-glucit-N-yl)propionamide] gave an MCC in “Cytotoxicity (MCC)” of 150 µg/mL. Besides, the MIC in the series on Visna virus is 75 µg/mL (≈ 187 µM).

`COc1ccc(NC(=O)CCN2C[C@H](O)[C@@H](O)[C@H](O)[C@H]2CO)cc1OC` [Example 24, N-(3,4-Dimethoxyphenyl)-3-(1,5-didesoxy-1,5-imino-D-glucit-N-yl)propionamide] registered an MCC in “Cytotoxicity (MCC)” of more than 1000 µg/mL. Further, the MIC in the series with Visna virus was 125 µg/mL (≈ 337 µM).

In the case of `COc1cc(NC(=O)CCN2C[C@H](O)[C@@H](O)[C@H](O)[C@H]2CO)cc(OC)c1` [Example 25, N-(3,5-Dimethoxyphenyl)-3-(1,5-didesoxy-1,5-imino-D-glucit-N-yl)propionamide], the MCC in “Cytotoxicity (MCC)” is more than 1000 µg/mL. The MIC in the series with Visna virus came out at 250 µg/mL (≈ 675 µM).

Compound `N#Cc1cccc(NC(=O)CCN2C[C@H](O)[C@@H](O)[C@H](O)[C@H]2CO)c1` [Example 27, N-(3-Cyanophenyl)-3-(1,5-didesoxy-1,5-imino-D-glucit-N-yl)propionamide] showed an MCC in “Cytotoxicity (MCC)” of more than 1000 µg/mL. Further, in the series on Visna virus, the MIC was 250 µg/mL (≈ 745 µM).

In “Cytotoxicity (MCC)”, `O=C(CCN1C[C@H](O)[C@@H](O)[C@H](O)[C@H]1CO)Nc1ccc(C2CCCCC2)cc1` [Example 28, N-(4-Cyclohexylphenyl)-3-(1,5-didesoxy-1,5-imino-D-glucit-N-yl)propionamide] had an MCC of more than 1000 µg/mL. Further, the MIC in the series with Visna virus is 500 µg/mL (≈ 1270 µM).

For `O=C(CCN1C[C@H](O)[C@@H](O)[C@H](O)[C@H]1CO)Nc1ccc2c(c1)OCCO2` [Example 29, N-(3,4-Ethylenedioxyphenyl)-3-(1,5-didesoxy-1,5-imino-D-glucit-N-yl)propionamide], the MCC in the series “Cytotoxicity (MCC)” is more than 1000 µg/mL. For the same compound, the MIC with Visna virus was found to be 125 µg/mL (≈ 339 µM).

For `O=C(CCN1C[C@H](O)[C@@H](O)[C@H](O)[C@H]1CO)Nc1ccc2c(c1)OCO2` [Example 31, N-(3,4-Methylenedioxyphenyl)-3-(1,5-didesoxy-1,5-imino-D-glucit-N-yl)propionamide], the MCC in “Cytotoxicity (MCC)” was more than 1000 µg/mL. For the same compound, the MIC in the series with Visna virus was found to be 125 µg/mL (≈ 353 µM).

Take `CSc1ccccc1NC(=O)CCN1C[C@H](O)[C@@H](O)[C@H](O)[C@H]1CO` [Example 32, N-(2-Methylthiophenyl)-3-(1,5-didesoxy-1,5-imino-D-glucit-N-yl)propionamide]: the MCC in “Cytotoxicity (MCC)” was more than 1000 µg/mL. Also, the MIC in the series on Visna virus was determined as 250 µg/mL (≈ 701 µM).

Turning to `O=C(CCN1C[C@H](O)[C@@H](O)[C@H](O)[C@H]1CO)Nc1ccccc1` [Example 34, N-Phenyl-3-(1,5-didesoxy-1,5-imino-D-glucit-N-yl)propionamide], the MCC in “Cytotoxicity (MCC)” was more than 1000 µg/mL. Moreover, in the series with Visna virus, the MIC came to 15 µg/mL (≈ 48.3 µM).

In “Cytotoxicity (MCC)”, `CCOc1ccc(NC(=O)CCN2C[C@H](O)[C@@H](O)[C@H](O)[C@H]2CO)cc1` [Example 35, N-(4-Ethoxyphenyl)-3-(1,5-didesoxy-1,5-imino-D-glucit-N-yl)propionamide] had an MCC of 250 µg/mL. The MIC in the series with Visna virus was 15 µg/mL (≈ 42.3 µM).

For the compound `O=C(CCN1C[C@H](O)[C@@H](O)[C@H](O)[C@H]1CO)NCc1ccccn1` [Example 38, N-(2-Pyridylmethyl)-3-(1,5-didesoxy-1,5-imino-D-glucit-N-yl)propionamide], the MCC in “Cytotoxicity (MCC)” amounted to 1000 µg/mL. For the same compound, in the series with Visna virus, the MIC is 250 µg/mL (≈ 768 µM).

Compound `O=C(CCN1C[C@H](O)[C@@H](O)[C@H](O)[C@H]1CO)Nc1ccc(OCCO)cc1` [Example 40, N-[4-(2-Hydroxyethoxy)phenyl]-3-(1,5-didesoxy-1,5-imino-D-glucit-N-yl)propionamide] gave an MCC in the series “Cytotoxicity (MCC)” of more than 1000 µg/mL. The MIC in the series on Visna virus worked out at 15 µg/mL (≈ 40.5 µM).

In the series “Cytotoxicity (MCC)”, `O=C(CCN1C[C@H](O)[C@@H](O)[C@H](O)[C@H]1CO)N1CCN(c2ccc(F)cc2)CC1` [Example 41, 3-(1,5-Didesoxy-1,5-imino-D-glucit-N-yl)propionyl-1-(4-p-fluorophenyl)piperazine] gave an MCC of 1000 µg/mL. The MIC with Visna virus turned out to be 125 µg/mL (≈ 315 µM).

In “Cytotoxicity (MCC)”, `COC(=O)c1ccc(NC(=O)CCN2C[C@@H](O)[C@@H](O)[C@H](O)[C@H]2CO)cc1` [Example 43, N-(4-Methoxycarbonylphenyl)-3-(1,5-didesoxy-1,5-imino-D-mannit-N-yl)propionamide] displayed an MCC of more than 1000 µg/mL. The MIC in the series on Visna virus stood at 500 µg/mL (≈ 1360 µM).

In the series “Cytotoxicity (MCC)”, `CCN(CC)CCOc1ccc(NC(=O)CCN2C[C@@H](O)[C@@H](O)[C@H](O)[C@H]2CO)cc1` [Example 50, N-[4-(2-N,N-Diethylaminoethoxy)phenyl]-3-(1,5-didesoxy-1,5-imino-D-mannit-N-yl)propionamide] yielded an MCC of 1000 µg/mL. In the series on Visna virus, the MIC came out at 250 µg/mL (≈ 588 µM).

For `C=CCOc1ccc(NC(=O)CCN2C[C@@H](O)[C@@H](O)[C@H](O)[C@H]2CO)cc1` [Example 51, N-(4-Allyloxyphenyl)-3-(1,5-didesoxy-1,5-imino-D-mannit-N-yl)propionamide], the MCC in “Cytotoxicity (MCC)” came out at 1000 µg/mL. Moreover, the MIC with Visna virus came out at 250 µg/mL (≈ 682 µM).

With `O=C(CCN1C[C@@H](O)[C@@H](O)[C@H](O)[C@H]1CO)Nc1ccc(OC(F)(F)C(F)Cl)cc1` (stereo partly drawn) [Example 53, N-[4-(2-Chloro-1,1,2-trifluoroethoxy)phenyl]-3-(1,5-didesoxy-1,5-imino-D-mannit-N-yl)propionamide], the MCC in the series “Cytotoxicity (MCC)” was 500 µg/mL. In addition, the MIC in the series with Visna virus turned out to be 250 µg/mL (≈ 565 µM).

Regarding `CC(C)c1ccc(NC(=O)CCN2C[C@@H](O)[C@@H](O)[C@H](O)[C@H]2CO)cc1` [Example 54, N-(4-Isopropylphenyl)-3-(1,5-didesoxy-1,5-imino-D-mannit-N-yl)propionamide], the MCC in “Cytotoxicity (MCC)” was 1000 µg/mL. The MIC in the series with Visna virus amounted to 250 µg/mL (≈ 709 µM).

For the compound `CC(C)c1ccccc1NC(=O)CCN1C[C@@H](O)[C@@H](O)[C@H](O)[C@H]1CO` [Example 55, N-(2-Isopropylphenyl)-3-(1,5-didesoxy-1,5-imino-D-mannit-N-yl)propionamide], the MCC in the series “Cytotoxicity (MCC)” is 1000 µg/mL. For the same compound, the MIC in the series with Visna virus worked out at 250 µg/mL (≈ 709 µM).

In the series “Cytotoxicity (MCC)”, `O=C(CCN1C[C@@H](O)[C@@H](O)[C@H](O)[C@H]1CO)Nc1ccc(F)c(F)c1` [Example 60, N-(3,4-Difluorophenyl)-3-(1,5-didesoxy-1,5-imino-D-mannit-n-yl)propionamide] returned an MCC of more than 1000 µg/mL. For the same compound, the MIC in the series on Visna virus turned out to be 500 µg/mL (≈ 1440 µM).

With `COc1cc(NC(=O)CCN2C[C@@H](O)[C@@H](O)[C@H](O)[C@H]2CO)cc(OC)c1` [Example 66, N-(3,5-Dimethoxyphenyl)-3-(1,5-didesoxy-1,5-imino-D-mannit-N-yl)propionamide], the MCC in the series “Cytotoxicity (MCC)” amounted to 1000 µg/mL. Besides, the MIC with Visna virus was determined as 500 µg/mL (≈ 1350 µM).
